In PubChem BioAssay AID330 (DTP/NCI, 2004):
“And” between values parts separate entries of the source, which are not always exact repeats. Equal values may be shown once. Inconclusive results and toxic doses are left out.

Tested on: P388 leukemia ip, CD2F1 mice, survival T/C
Assay: NCI In Vivo Anticancer Drug Screen. Data for tumor model P388 Leukemia (intraperitoneal) in CD2F1 (CDF1) mice
Conditions: endpoint: median survival time, higher = longer survival
Method in brief: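 Mice carrying the transplanted tumor received test compound or vehicle. Survival was recorded in each group, and the value is the treated-group measurement divided by that of the vehicle-treated control group.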

[1] = dose: 50.0 mg/kg/injection, schedule: Q01DX005 (ip), vehicle: saline with Tween-80
[2] = dose: 50.0 mg/kg/injection, schedule: Q04DX003 (ip), vehicle: saline
[3] = dose: 100.0 mg/kg/injection, schedule: Q04DX003 (ip), vehicle: saline
[4] = dose: 60.0 mg/kg/injection, schedule: Q01DX005 (ip), vehicle: Klucel (hydroxypropylcellulose) (HPC)
[5] = dose: 120.0 mg/kg/injection, schedule: Q01DX005 (ip), vehicle: Klucel (hydroxypropylcellulose) (HPC)
[6] = dose: 240.0 mg/kg/injection, schedule: Q01DX005 (ip), vehicle: Klucel (hydroxypropylcellulose) (HPC)
[7] = dose: 60.0 mg/kg/injection, schedule: Q01DX005 (ip), vehicle: saline with Tween-80
[8] = dose: 120.0 mg/kg/injection, schedule: Q01DX005 (ip), vehicle: saline with Tween-80
[9] = dose: 240.0 mg/kg/injection, schedule: Q01DX005 (ip), vehicle: saline with Tween-80
[10] = dose: 6.25 mg/kg/injection, schedule: Q01DX009 (ip), vehicle: Klucel (hydroxypropylcellulose) (HPC)
[11] = dose: 12.5 mg/kg/injection, schedule: Q01DX009 (ip), vehicle: Klucel (hydroxypropylcellulose) (HPC)
[12] = dose: 12.5 mg/kg/injection, schedule: Q01DX009 (ip), vehicle: saline with Tween-80
[13] = dose: 50.0 mg/kg/injection, schedule: Q01DX009 (ip), vehicle: saline with Tween-80
[14] = dose: 100.0 mg/kg/injection, schedule: Q01DX009 (ip), vehicle: saline with Tween-80
[15] = dose: 25.0 mg/kg/injection, schedule: Q01DX009 (ip), vehicle: Klucel (hydroxypropylcellulose) (HPC)
[16] = dose: 50.0 mg/kg/injection, schedule: Q01DX009 (ip), vehicle: Klucel (hydroxypropylcellulose) (HPC)

Compound: COC(=O)c1ccc(SCC2=Nc3c(nc(N)[nH]c3=O)NCC2)cc1
- T/C (dose: 12.5 mg/kg/injection, schedule: Q01DX009 (ip), vehicle: distilled water + Tween-80): 99 % of control
- T/C (dose: 25.0 mg/kg/injection, schedule: Q01DX009 (ip), vehicle: distilled water + Tween-80): 93 % of control
- T/C (dose: 50.0 mg/kg/injection, schedule: Q01DX009 (ip), vehicle: distilled water + Tween-80): 90 % of control
- T/C (dose: 100.0 mg/kg/injection, schedule: Q01DX009 (ip), vehicle: distilled water + Tween-80): 90 % of control

Compound: Cc1cccc(NC(=O)NC2CCCCC2)c1
- T/C (dose: 50.0 mg/kg/injection, schedule: Q01DX009 (ip), vehicle: saline): 103 % of control
- T/C (dose: 100.0 mg/kg/injection, schedule: Q01DX009 (ip), vehicle: saline): 102 % of control
- T/C (dose: 200.0 mg/kg/injection, schedule: Q01DX009 (ip), vehicle: saline): 93 % of control

Compound: COc1ccc(C(C)c2cc3c(cc2OC)OCO3)cc1OC (stereo not given)
- T/C (dose: 50.0 mg/kg/injection, schedule: Q01DX005 (ip), vehicle: distilled water + Tween-80): 99 % of control
- T/C (dose: 100.0 mg/kg/injection, schedule: Q01DX005 (ip), vehicle: distilled water + Tween-80): 98 % of control
- T/C (dose: 200.0 mg/kg/injection, schedule: Q01DX005 (ip), vehicle: distilled water + Tween-80): 100 % of control

Compound: CC1C2CC3OC(=O)C1C3C2 (stereo not given)
- T/C (dose: 12.5 mg/kg/injection, schedule: Q01DX005 (ip), vehicle: saline with Tween-80): 102 % of control
- T/C (dose: 25.0 mg/kg/injection, schedule: Q01DX005 (ip), vehicle: saline with Tween-80): 102 % of control
- T/C [1]: 99 % of control and 106 % of control

Compound: CCCCOB(OCCCC)C(C)C(C#N)C#N (stereo not given)
- T/C [2]: 92 % of control
- T/C [3]: 92 % of control
- T/C (dose: 200.0 mg/kg/injection, schedule: Q04DX003 (ip), vehicle: saline): 96 % of control

Compound: O=C(COc1cccc2oc3ccccc3c(=O)c12)N/N=C/c1ccc(N(CCCl)CCCl)cc1
- T/C [4]: 97 % of control
- T/C [5]: 96 % of control
- T/C [6]: 95 % of control

Compound: Cn1c(=O)c2c(O)c(-c3ccccc3)c(=O)n3c4ccccc4n(c1=O)c23
- T/C [7]: 99 % of control
- T/C [8]: 96 % of control
- T/C [9]: 97 % of control

Compound: [Cl][Sn]([Cl])([c]1ccccc1)[c]1ccccc1.c1ccncc1.c1ccncc1
- T/C (dose: 3.12 mg/kg/injection, schedule: Q01DX009 (ip), vehicle: saline): 150 % of control
- T/C [10]: 153 % of control and 166 % of control
- T/C (dose: 6.25 mg/kg/injection, schedule: Q01DX009 (ip), vehicle: saline): 156 % of control
- T/C [11]: 155 % of control and 180 % of control
- T/C [12]: 151 % of control

Compound: COC(=O)C1CC23C4=C(CCC41)CCC1CN4CC(C)C(CC(OC(C)=O)C12COC(C)=O)C43O (stereo not given)
- T/C (dose: 0.78 mg/kg/injection, schedule: Q01DX009 (ip), vehicle: suspension in saline): 108 % of control
- T/C (dose: 1.56 mg/kg/injection, schedule: Q01DX009 (ip), vehicle: suspension in saline): 104 % of control
- T/C (dose: 3.13 mg/kg/injection, schedule: Q01DX009 (ip), vehicle: suspension in saline): 100 % of control
- T/C (dose: 6.25 mg/kg/injection, schedule: Q01DX009 (ip), vehicle: suspension in saline): 104 % of control

Compound: [N-]=[N+]=[N-]
- T/C (dose: 3.0 mg/kg/injection, schedule: Q01DX009 (ip), vehicle: saline with Tween-80): 100 % of control
- T/C (dose: 6.0 mg/kg/injection, schedule: Q01DX009 (ip), vehicle: saline with Tween-80): 105 % of control

Compound: C/C=C(\CC)C(C#N)O[Si](C)(C)C (stereo not given)
- T/C [7]: 93 % of control
- T/C [8]: 98 % of control

Compound: CCOC(=O)C1C(C(=O)c2ccc(Br)cc2)C12C(=O)N(C)c1ccccc12 (stereo not given)
- T/C (dose: 12.5 mg/kg/injection, schedule: Q04DX002 (ip), vehicle: saline with Tween-80): 99 % of control
- T/C (dose: 25.0 mg/kg/injection, schedule: Q04DX002 (ip), vehicle: saline with Tween-80): 92 % of control
- T/C (dose: 50.0 mg/kg/injection, schedule: Q04DX002 (ip), vehicle: saline with Tween-80): 93 % of control

Compound: CCOC(=O)CCCn1nc(-c2ccc(Cl)cc2)c(-c2ccc(Cl)cc2)c(C#N)c1=O
- T/C (dose: 100.0 mg/kg/injection, schedule: Q04DX002 (ip), vehicle: saline with Tween-80): 123 % of control

Compound: O=C(O)CC1CCC1CC(=O)O (stereo not given)
- T/C [13]: 95 % of control
- T/C [14]: 95 % of control

Compound: OC(CNC1CCCCC1)c1ccccc1 (stereo not given)
- T/C [10]: 98 % of control
- T/C [11]: 100 % of control
- T/C [15]: 95 % of control
- T/C [16]: 109 % of control

Compound: O=C1OC(c2ccccc2)=N/C1=C\c1ccc(Br)cc1
- T/C (dose: 50.0 mg/kg/injection, schedule: Q01DX005 (ip), vehicle: Klucel (hydroxypropylcellulose) (HPC)): 93 % of control
- T/C (dose: 100.0 mg/kg/injection, schedule: Q01DX005 (ip), vehicle: Klucel (hydroxypropylcellulose) (HPC)): 87 % of control and 95 % of control
- T/C (dose: 200.0 mg/kg/injection, schedule: Q01DX005 (ip), vehicle: Klucel (hydroxypropylcellulose) (HPC)): 87 % of control

Compound: c1ccc(-c2nc3cnccc3o2)cc1
- T/C [10]: 103 % of control
- T/C [11]: 105 % of control
- T/C [15]: 114 % of control
- T/C [16]: 112 % of control

Compound: CC(=O)CC(=O)CCCC(=O)O
- T/C [13]: 96 % of control
- T/C [14]: 99 % of control
- T/C (dose: 200.0 mg/kg/injection, schedule: Q01DX009 (ip), vehicle: saline with Tween-80): 104 % of control

Compound: Cc1cccc(C)c1Nc1nnc(-c2ccc(N(C)C)cc2)s1
- T/C [7]: 86 % of control
- T/C [8]: 87 % of control

Compound: CCCCCCCCCCCC(=O)OCCS(=O)(=O)CCOC(=O)CCCCCCCCCCC
- T/C (dose: 100.0 mg/kg/injection, schedule: Q04DX003 (ip), vehicle: Klucel (hydroxypropylcellulose) (HPC)): 104 % of control
- T/C (dose: 200.0 mg/kg/injection, schedule: Q04DX003 (ip), vehicle: Klucel (hydroxypropylcellulose) (HPC)): 103 % of control
- T/C (dose: 400.0 mg/kg/injection, schedule: Q04DX003 (ip), vehicle: Klucel (hydroxypropylcellulose) (HPC)): 99 % of control

Compound: COc1ccc2nc(-c3ccccc3)cc(N=[N+]=[N-])c2c1
- T/C [7]: 100 % of control
- T/C [8]: 97 % of control
- T/C [9]: 102 % of control

Compound: COC1OC2COc3ccccc3OC2C(NC(N)=S)C1OC (stereo not given)
- T/C [4]: 105 % of control
- T/C [5]: 105 % of control
- T/C [6]: 105 % of control

Compound: COc1cc([C@@H]2Oc3c(OC)cc4ccc(=O)oc4c3O[C@H]2CO)ccc1O
- T/C (dose: 200.0 mg/kg/injection, schedule: Q01DX005 (ip), vehicle: saline + alcohol): 87 % of control
- T/C (dose: 300.0 mg/kg/injection, schedule: Q01DX005 (ip), vehicle: saline + alcohol): 94 % of control

Compound: CNC(=S)N/N=C(\C)C(C)(C)C
- T/C (dose: 25.0 mg/kg/injection, schedule: Q04DX003 (ip), vehicle: saline): 101 % of control
- T/C [2]: 101 % of control
- T/C [3]: 99 % of control and 104 % of control

Compound: CN1C(=O)N(C)P123OP1(N(C)C(=O)N1C)(N(C)C(=O)N2C)N(C)C(=O)N3C
- T/C (dose: 60.0 mg/kg/injection, schedule: Q01DX005 (ip), vehicle: saline): 103 % of control
- T/C (dose: 120.0 mg/kg/injection, schedule: Q01DX005 (ip), vehicle: saline): 97 % of control
- T/C (dose: 240.0 mg/kg/injection, schedule: Q01DX005 (ip), vehicle: saline): 89 % of control

Compound: COc1ccc(Sc2ccccn2)cc1OC
- T/C [1]: 101 % of control
- T/C (dose: 100.0 mg/kg/injection, schedule: Q01DX005 (ip), vehicle: saline with Tween-80): 106 % of control
- T/C (dose: 200.0 mg/kg/injection, schedule: Q01DX005 (ip), vehicle: saline with Tween-80): 114 % of control

Compound: COc1cc2c3c(c1OC)C=C[C@@H]1CCCN(CC2)[C@H]31
- T/C (dose: 7.5 mg/kg/injection, schedule: Q01DX005 (ip), vehicle: Klucel (hydroxypropylcellulose) (HPC)): 100 % of control
- T/C (dose: 15.0 mg/kg/injection, schedule: Q01DX005 (ip), vehicle: Klucel (hydroxypropylcellulose) (HPC)): 98 % of control
- T/C (dose: 30.0 mg/kg/injection, schedule: Q01DX005 (ip), vehicle: Klucel (hydroxypropylcellulose) (HPC)): 101 % of control

Compound: O=C1C=C(Sc2ccc3ccccc3c2)C(=O)c2ccccc21
- T/C (dose: 3.13 mg/kg/injection, schedule: Q01DX009 (ip), vehicle: saline with Tween-80): 101 % of control
- T/C (dose: 6.25 mg/kg/injection, schedule: Q01DX009 (ip), vehicle: saline with Tween-80): 105 % of control
- T/C [12]: 104 % of control
- T/C (dose: 25.0 mg/kg/injection, schedule: Q01DX009 (ip), vehicle: saline with Tween-80): 95 % of control
- T/C [13]: 104 % of control
